Experiment [1] has as its system B. humptydooensis ATCC BAA-2767. As to the kind of experiment: microbe, parasite or virus in culture. It is filed as cell-based. Particulars: Burkholderia humptydooensis, ATCCBAA2767, read-out: Minimum inhibitory concentration (MIC), B. humptydooensis ATCC BAA-2767.
The next experiment relates to A. baumannii ATCC 17978. Nature of the experiment: microbe, parasite or virus in culture. Conditions: Acinetobacter baumannii, ATCC17978, read-out: MIC, A. baumannii ATCC 17978. It is filed as cell-based.
The subject of experiment [2] is P. aeruginosa (ΔmexAB-oprM). As to the kind of experiment: Broth microdilution MIC in iron-depleted CAMHB (IDM). Conditions: Pseudomonas aeruginosa; iron-depleted CAMHB (IDM); […]; read-out: Minimum inhibitory concentration, P. aeruginosa ΔmexAB-oprM. It is filed as cell-based. In general terms: Dilution methods test growth across graded concentrations, often in twofold steps.

For another experiment, the system named is P. aeruginosa ATCC 27853. Nature of the experiment: microbe, parasite or virus in culture. It is filed as cell-based. Particulars: Pseudomonas aeruginosa, ATCC27853, read-out: Minimum inhibitory concentration, P. aeruginosa ATCC 27853.
In another experiment the test system is A. baumannii 1258916. As to the kind of experiment: microbe, parasite or virus in culture. Conditions: Acinetobacter baumannii, 1258916, read-out: MIC, A. baumannii 1258916. It is filed as cell-based, Acinetobacter baumannii.
The test system of the next experiment is P. aeruginosa CDC-0090. Nature of the experiment: microbe, parasite or virus in culture. Format: cell-based. Particulars: Pseudomonas aeruginosa, CDC0090, read-out: Minimum inhibitory concentration, P. aeruginosa CDC-0090.
The subject of another experiment is A. baumannii CDC-0036. Nature of the experiment: microbe, parasite or virus in culture. It is filed as cell-based. Particulars: Acinetobacter baumannii, CDC0036, read-out: MIC, A. baumannii CDC-0036.
A further experiment concerns A. baumannii CDC-0033. Nature of the experiment: microbe, parasite or virus in culture. Format: cell-based. Conditions: Acinetobacter baumannii, CDC0033, read-out: MIC, A. baumannii CDC-0033.
In experiment [3] the test system is B. thailandensis ATCC 700388. As to the kind of experiment: microbe, parasite or virus in culture. Format: cell-based. Conditions: Burkholderia thailandensis, ATCC700388, read-out: Minimum inhibitory concentration (MIC), B. thailandensis ATCC 700388.
The target in experiment [4] is T1, PBP3 from Pseudomonas aeruginosa (PAO1) (Pseudomonas aeruginosa, UniProt G3XD46).
T1 construct: made in house
T1 sequence (G3XD46 whole entry): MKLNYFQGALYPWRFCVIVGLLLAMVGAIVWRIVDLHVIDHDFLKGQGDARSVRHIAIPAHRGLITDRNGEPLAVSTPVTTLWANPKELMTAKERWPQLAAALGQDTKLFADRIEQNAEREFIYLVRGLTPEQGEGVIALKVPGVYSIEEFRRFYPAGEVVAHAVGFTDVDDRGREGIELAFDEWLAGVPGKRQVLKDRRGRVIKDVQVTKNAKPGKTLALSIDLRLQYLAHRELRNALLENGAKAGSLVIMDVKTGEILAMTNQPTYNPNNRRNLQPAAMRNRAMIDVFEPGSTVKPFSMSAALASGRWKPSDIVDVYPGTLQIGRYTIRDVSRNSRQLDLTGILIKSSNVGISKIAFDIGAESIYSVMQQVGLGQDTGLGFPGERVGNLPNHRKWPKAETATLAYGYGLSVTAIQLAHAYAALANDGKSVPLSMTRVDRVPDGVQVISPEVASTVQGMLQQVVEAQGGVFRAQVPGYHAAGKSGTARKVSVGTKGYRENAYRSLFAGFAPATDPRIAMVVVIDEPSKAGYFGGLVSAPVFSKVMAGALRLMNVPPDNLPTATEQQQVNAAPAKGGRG
As to the kind of experiment: Bocillin-FL fluorescence polarization competition binding, P. aeruginosa PBP3. Particulars: for IC50: Binding affinity to P. aeruginosa PBP3, fluorescence polarization competition binding assay using Bocillin-FL, read-out: P. aeruginosa PBP3 Potency. An excerpt: (§1) To determine the ability of boronic acid-based test PBP inhibitors to bind Penicillin Binding Proteins (PBPs), Bocillin-FL (fluorescently-labeled penicillin V; ThermoFisher Scientific) was used in a fluorescence polarization (FP) competition binding assay to assess inhibitor binding to PBP3 from Escherichia coli (K-12), PBP3 from Pseudomonas aeruginosa (PAO1), PBP1a and PBP3 from Acinetobacter baumannii (ATCC 19606), and PBP2 from Neisseria gonorrhoeae (FA19). PBPs were cloned and purified as described previously (E. coli PBP3, King, D. T, et al., ACS Infectious Diseases 2015, 1, 175-184; P. aeruginosa PBP3, Han et. al., PNAS 2010, 107 (51), 22002-22007; A. baumannii PBPs, Penwell et. al., Antimicrob. Agents Chemother. 2015, 59 (3), 1680-1689; N. gonorrhoeae PBP2, Singh et. al., J. Biol. Chem. 2019, 294 (38), 14020-14032). To establish assay conditions for competition binding, enzyme titration/saturation binding experiments were initially performed. Bocillin-FL was prepared at 0.2 μM in a buffer comprised of 50 mM Hepes (pH 8.0), 300 mM NaCl and 10% (v/v) glycerol for reactions with E. coli, P. aeruginosa and N. gonorrhoeae PBPs, and 25 mM Tris (pH 8.0), 200 mM NaCl, 10% (v/v) glycerol and 0.005% (v/v) Tween 20 for reactions with A. baumannii PBPs. Saturation binding was performed by mixing 40 μl of PBP solutions ranging in concentrations from 0-24 μM with 40 μl of the 0.2 μM Bocillin-FL solution, in individual wells of a black 384-well microplate. FP was measured immediately upon mixing (Excitation, 490 nm; Emission, 520 nm; g-factor, 0.96), using a Cytation3 (BioTek) microplate reader and measured continuously for up to 120 minutes. The FP response stabilized after 15 minutes for P. aeruginosa and A. baumannii PBP3, 30 minutes for E. coli PBP3 and A. baumannii PBP1a, and less than 1 minute for N. gonorrhoeae PBP2. […] The competition binding assay (80 μl final volume) was validated using beta-lactams and PBPs at final concentrations of: 1.5 μM for E. coli PBP3; 0.75 μM for P. aeruginosa PBP3; 1 μM for A. baumannii PBP1a; 0.2 μM for A. baumannii PBP3; and 0.25 μM for N. gonorrhoeae PBP2. Bocillin-FL was at 0.1 μM (0.05 μM with A. baumannii PBP1a) and beta-lactam concentrations ranged from 0-1,000 μM. E. coli PBP3 was incubated with increasing concentrations of ampicillin in a black 384-well microplate (Corning) for 30 minutes. P. aeruginosa PBP3 was incubated for 15 minutes with aztreonam, whereas A. baumannii PBP1a and PBP3 were incubated for 15 minutes with meropenem, and then Bocillin-FL was added followed immediately by the FP measurement for up to 60 minutes. […] The beta-lactam potency was reported as the concentration of beta-lactam required to reduce the amount of PBP bound-Bocillin-FL by 50% (EC50). […] The EC50 of aztreonam was determined to be <0.5 μM for P. aeruginosa PBP3. […] Binding assays for boronic acid PBP inhibitors were performed in an identical fashion for the respective PBPs.
A general note: In fluorescence polarisation assays a small probe gives low polarisation when free and higher when bound to something large.

Another experiment concerns A. baumannii ATCC 19606. Nature of the experiment: microbe, parasite or virus in culture. Particulars: Acinetobacter baumannii, ATCC19606, read-out: MIC, A. baumannii ATCC 19606. It is filed as cell-based.
Another experiment concerns P. aeruginosa ATCC 35151. Nature of the experiment: microbe, parasite or virus in culture. Format: cell-based. Particulars: Pseudomonas aeruginosa, ATCC35151, read-out: Minimum inhibitory concentration, P. aeruginosa ATCC 35151.
In experiment [5] the target is T2, PBP3 from Acinetobacter baumannii (ATCC 19606) (Acinetobacter baumannii, UniProt A0ABX6CK25).
T2 sequence (A0ABX6CK25 64-610): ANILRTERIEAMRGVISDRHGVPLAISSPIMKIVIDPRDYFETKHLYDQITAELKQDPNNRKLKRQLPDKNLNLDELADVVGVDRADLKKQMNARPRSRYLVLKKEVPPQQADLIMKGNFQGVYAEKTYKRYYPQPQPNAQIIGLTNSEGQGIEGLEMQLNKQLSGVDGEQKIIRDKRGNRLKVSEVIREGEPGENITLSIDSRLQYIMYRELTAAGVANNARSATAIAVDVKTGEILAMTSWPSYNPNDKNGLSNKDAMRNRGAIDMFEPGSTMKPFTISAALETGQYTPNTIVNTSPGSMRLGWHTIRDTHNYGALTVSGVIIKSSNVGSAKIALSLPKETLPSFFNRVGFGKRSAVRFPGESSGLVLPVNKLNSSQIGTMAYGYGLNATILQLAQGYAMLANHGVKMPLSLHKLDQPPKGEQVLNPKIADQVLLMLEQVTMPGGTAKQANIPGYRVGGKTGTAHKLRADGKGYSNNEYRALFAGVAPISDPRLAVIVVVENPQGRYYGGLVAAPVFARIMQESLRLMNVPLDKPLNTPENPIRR
Nature of the experiment: Bocillin-FL fluorescence polarization competition binding, A. baumannii PBP3. Particulars: fluorescence polarization competition binding assay using Bocillin-FL; read-out: A. baumannii PBP3 Potency.
From the text: as §1

A further experiment deals with P. aeruginosa CDC-0110. As to the kind of experiment: microbe, parasite or virus in culture. It is filed as cell-based. Particulars: Pseudomonas aeruginosa, CDC0110, read-out: Minimum inhibitory concentration, P. aeruginosa CDC-0110.
The next experiment has as its system A. baumannii CDC-0045. Nature of the experiment: microbe, parasite or virus in culture. Format: cell-based. Particulars: Acinetobacter baumannii, CDC0045, read-out: MIC, A. baumannii CDC-0045.
The next experiment has as its system P. aeruginosa CDC-0054. Nature of the experiment: microbe, parasite or virus in culture. Format: cell-based. Particulars: Pseudomonas aeruginosa, CDC0054, read-out: Minimum inhibitory concentration, P. aeruginosa CDC-0054.
In another experiment the test system is P. aeruginosa CDC-0095. As to the kind of experiment: microbe, parasite or virus in culture. It is filed as cell-based. Particulars: Pseudomonas aeruginosa, CDC0095, read-out: Minimum inhibitory concentration, P. aeruginosa CDC-0095.

We go through six compounds from patent publication US20240270762A1, “PENICILLIN-BINDING PROTEIN INHIBITORS” (priority 2021, published 2024).

The structures appear in SMILES notation. Converted amounts (≈) assume the structure as drawn.

For the compound `O=C(O)c1c(F)ccc2c1OB(O)[C@@H](NC(=O)[C@@H](NC(=O)N1CCN(Cc3ccc(O)c(O)c3Cl)C(=O)C1=O)c1cccc(P(=O)(O)O)c1)C2` (single isomer, unassigned) [Example 162], the MIC is < 1 µg/mL in experiment [1]; < 1 µg/mL with A. baumannii ATCC 17978; 2 to 4 µg/mL (≈ 2.72 to 5.44 µM) in experiment [2]; 2 to 4 µg/mL (≈ 2.72 to 5.44 µM) in the experiment on P. aeruginosa ATCC 27853; 32 to 64 µg/mL (≈ 43.6 to 87.1 µM) in the experiment with A. baumannii 1258916; 2 to 4 µg/mL (≈ 2.72 to 5.44 µM) in the experiment on P. aeruginosa CDC-0090. The MIC is > 128 µg/mL with A. baumannii CDC-0036; > 128 µg/mL with A. baumannii CDC-0033; 8 to 16 µg/mL (≈ 10.9 to 21.8 µM) in experiment [3]; < 1 µg/mL in the experiment with A. baumannii ATCC 19606; < 1 µg/mL in the experiment on P. aeruginosa ATCC 35151; 2 to 4 µg/mL (≈ 2.72 to 5.44 µM) in the experiment with P. aeruginosa CDC-0110. Also, the MIC is > 128 µg/mL with A. baumannii CDC-0045, 2 to 4 µg/mL (≈ 2.72 to 5.44 µM) in the experiment on P. aeruginosa CDC-0054 and 8 to 16 µg/mL (≈ 10.9 to 21.8 µM) in the experiment on P. aeruginosa CDC-0095. Besides, the IC50 in experiment [4] is 10 to 50 µM; in experiment [5] it was < 10 µM.

Regarding `O=C(O)c1c(F)ccc2c1OB(O)[C@@H](NC(=O)[C@@H](NC(=O)N1CCN(Cc3ccc(O)c(O)c3Cl)C(=O)C1=O)c1ccc(P(=O)(O)O)c(F)c1F)C2` [Example 165, (R)-3-((S)-2-(4-(2-chloro-3,4-dihydroxybenzyl)-2,3-dioxopiperazine-1-carboxamido)-2-(2,3-difluoro-4-phosphonophenyl)acetamido)-7-fluoro-2-hydroxy-3,4-dihydro-2H-benzo[e][1,2]oxaborinine-8-carboxylic acid], the MIC is < 1 µg/mL in [1]; < 1 µg/mL in the experiment with A. baumannii ATCC 17978; 2 to 4 µg/mL (≈ 2.59 to 5.19 µM) in [2]; 2 to 4 µg/mL (≈ 2.59 to 5.19 µM) in the experiment with P. aeruginosa ATCC 27853; 2 to 4 µg/mL (≈ 2.59 to 5.19 µM) in the experiment on A. baumannii 1258916; 2 to 4 µg/mL (≈ 2.59 to 5.19 µM) in the experiment on P. aeruginosa CDC-0090. The MIC in the experiment with A. baumannii CDC-0036 was > 128 µg/mL; in the experiment on A. baumannii CDC-0033 it was 32 to 64 µg/mL (≈ 41.5 to 83 µM); in experiment [3], < 1 µg/mL; in the experiment on A. baumannii ATCC 19606 it was < 1 µg/mL; in the experiment with P. aeruginosa ATCC 35151, < 1 µg/mL; in the experiment with P. aeruginosa CDC-0110, < 1 µg/mL. Also, the MIC in the experiment with A. baumannii CDC-0045, in the experiment with P. aeruginosa CDC-0054 and in the experiment on P. aeruginosa CDC-0095 was < 1 µg/mL throughout. Also, the figures for the IC50 in experiment [4] and in experiment [5] were 10 to 50 µM and < 10 µM, respectively.

In the case of `O=C(O)c1c(F)ccc2c1OB(O)[C@@H](NC(=O)C(NC(=O)N1CCN(C3CCN(C(=O)c4cncc(O)c4)CC3)C1=O)c1cc(F)c(O)c(O)c1Cl)C2` (stereo partly drawn) [Example 464, (3R)-3-(2-(2-chloro-5-fluoro-3,4-dihydroxyphenyl)-2-(3-(1-(5-hydroxynicotinoyl)piperidin-4-yl)-2-oxoimidazolidine-1-carboxamido)acetamido)-7-fluoro-2-hydroxy-3,4-dihydro-2H-benzo[e][1,2]oxaborinine-8-carboxylic acid], the IC50 in experiment [4] and in experiment [5] was < 10 µM throughout.

Turning to `O=C(O)c1c(F)ccc2c1OB(O)[C@@H](NC(=O)C(NC(=O)N1CCN(C3CCN(C(=O)c4cc[nH]c(=O)c4)CC3)C1=O)c1cc(F)c(O)c(O)c1Cl)C2` (stereo partly drawn) [Example 465, (3R)-3-(2-(2-chloro-5-fluoro-3,4-dihydroxyphenyl)-2-(2-oxo-3-(1-(2-oxo-1,2-dihydropyridine-4-carbonyl)piperidin-4-yl)imidazolidine-1-carboxamido)acetamido)-7-fluoro-2-hydroxy-3,4-dihydro-2H-benzo[e][1,2]oxaborinine-8-carboxylic acid], the IC50 in [4] and in [5] was < 10 µM throughout.

For the compound `O=C(O)c1c(F)ccc2c1OB(O)[C@@H](NC(=O)C(NC(=O)N1CCN(C3CCN(C(=O)c4ccc5[nH]nnc5c4)CC3)C1=O)c1cc(F)c(O)c(O)c1Cl)C2` (stereo partly drawn) [Example 469, (3R)-3-(2-(3-(1-(1H-benzo[d][1,2,3]triazole-5-carbonyl)piperidin-4-yl)-2-oxoimidazolidine-1-carboxamido)-2-(2-chloro-5-fluoro-3,4-dihydroxyphenyl)acetamido)-7-fluoro-2-hydroxy-3,4-dihydro-2H-benzo[e][1,2]oxaborinine-8-carboxylic acid], in experiment [5], the IC50 is < 10 µM.

One may read the EC50 as the midpoint of the concentration-response curve. High values mean lower potency in that assay, low ones higher potency in that assay. For the compound `C[C@H]1[C@H](NC(=O)/C(=N\OC(C)(C)C(=O)O)c2csc(N)n2)C(=O)N1S(=O)(=O)O` [aztreonam, reference compound], in experiment [4] (beta-lactam validation of FP competition assay, 15 minutes preincubation), the EC50 is < 500 nM.
